Values of other authors in patent US9592699B2, “Dampening fluid for digital lithographic printing” (Xerox Corporation, priority 2011, dated 2017).

How the values were obtained:
[1] = not given; remark: listed apart in the source
[2] = not given; remark: listed apart in the source
[3] = not given; remark: listed apart in the source
[4] = not given; remark: listed apart in the source

SMILES	Surface Tension at 25° C.	Vapor Pressure at 25° C. [1]	Kinematic Viscosity at 25° C. [2]	Heat of Vaporization at boiling point [3]	surface tension	kinematic viscosity ([2]; 1 mm^2/sec)	Solubility in Water [4]
C[Si](C)(C)O[Si](C)(C)C [(II-a), hexamethyldisiloxane]	15.9 dynes/cm	35 mmHg	0.65 cSt	200.8 kJ/kg	–	–	–
C[Si]1(C)O[Si](C)(C)O[Si](C)(C)O[Si](C)(C)O[Si](C)(C)O1 [(III-b), decamethylcyclopentasiloxane]	18.0 dynes/cm	1 mmHg	3.9 cSt	157 kJ/kg	–	–	–
COC(F)(C(F)(F)C(F)(F)F)C(F)(C(F)(F)F)C(F)(F)F (centres unmarked) [(I-a), 1,1,1,2,2,3,4,5,5,5-decafluoro-3-methoxy-4-(trifluoromethyl)pentane]	15 dynes/cm	44.9 mmHg	0.71 cSt	101.7 kJ/kg	–	–	–
O [Water, reference compound]	72 dynes/cm	–	1 cSt	–	around 70 dynes/cm	about 1 centiStoke	–
C[Si](C)(C)O[Si](C)(O[Si](C)(C)C)O[Si](C)(C)C [(IV-a), methyltris(trimethylsiloxy)silane]	16.8 dynes/cm	<10 mmHg	1.5 cSt	–	–	–	–
CCOC(F)(C(F)(F)C(F)(F)C(F)(F)F)C(F)(C(F)(F)F)C(F)(F)F (centres unmarked) [(I-b), 3-ethoxy-1,1,1,2,3,4,4,5,5,6,6,6-dodecafluoro-2-(trifluoromethyl)hexane]	16.2 dynes/cm	–	0.77 cSt	88.5 kJ/kg	–	–	–
CC(OC(F)(F)C(F)C(F)(F)F)C(F)(F)C(F)C(F)(F)F (centres unmarked) [(I-c), 1,1,1,2,3,3-Hexafluoro-4-(1,1,2,3,3,3-hexafluoropropoxy)pentane]	17.7 dynes/cm	–	1.07 cSt	115.6 kJ/kg	–	–	<10 ppm
C[Si](C)(C)O[Si](C)(C)O[Si](C)(C)C [(II-b), octamethyltrisiloxane]	17.4 dynes/cm	4 mmHg	1 cSt	158 kJ/kg	–	–	–
COC(F)(F)C(F)(F)C(F)(F)F [(I-f), 1-methoxyheptafluoropropane]	12.4 dynes/cm	484.5 mmHg	0.32 cSt	142 kJ/kg	–	–	–
C[Si]1(C)O[Si](C)(C)O[Si](C)(C)O[Si](C)(C)O1 [(III-a), octamethylcyclotetrasiloxane]	18.4 dynes/cm	1.5 mmHg	2.3 cSt	133 kJ/kg	–	–	–
